From ChEMBL document CHEMBL1201862, “PubChem BioAssay data set” (2004) come the findings set out here.

The structures appear in SMILES notation.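 These data come from cells grown in 96-well plates and exposed to compound for 48 hours at five concentrations. GI50 is the concentration that inhibits growth by half.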 Active and inactive are the calls of the source. Cut-off read from the data, not from the text of the source: active = GI50 up to about 1.1 µM and inactive = higher.

Assay in all cases: inhibition of tumour cell growth, NCI panel, 48 h
The test system of test [1] is SF-539.
The subject of test [2] is HCT-116.
Test [3] has as its system SR.
For test [4], the system named is UACC-62.
Test [5] relates to DU-145.
Test [6] relates to SK-MEL-5.
Test [7] deals with OVCAR-5.
In test [8] the test system is HT-29.
For test [9], the system named is HOP-92.
In test [10] the test system is M14.
The test system of test [11] is SF-268.
For test [12], the system named is TK-10.
The subject of test [13] is EKVX.
Test [14] concerns MCF7.
In test [15] the test system is HCC 2998.
The test system of test [16] is KM12.
Test [17] concerns MDA-MB-231.
The test system of test [18] is SK-MEL-2.

On to `CN1c2ccccc2C(=O)NC12CCNCC2`, for which the GI50 in test [1], in [2], in [3], in [4], in test [5] and in test [6] was > 100 µM (inactive) each time. Besides, the GI50 in test [7], in test [8], in test [9], in [10], in test [11] and in test [12] was > 100 µM (inactive) in each case. In addition, the GI50 in test [13], in [14], in [15] and in test [16] was > 100 µM (inactive) in each case.

On to `CC(=NNC(=S)Nc1ccc(C)cc1)c1cccc(C(C)=NNC(=S)Nc2ccc(C)cc2)n1`, for which the GI50 was 7.01 µM (inactive) in [1]; 7.33 µM (inactive) in [2]; 4.02 µM (inactive) in test [3]; 7.14 µM (inactive) in test [4]; > 100 µM (inactive) in test [5]; 6.44 µM (inactive) in test [6]. The GI50 in [17] was 24.2 µM (inactive); in test [7] it was 60.5 µM (inactive); in [8], 11.9 µM (inactive); in test [18], 68.7 µM (inactive); in [9] it was 10 µM (inactive); in [10], 8.89 µM (inactive). In addition, the GI50 is > 100 µM (inactive) in test [11]; 60.1 µM (inactive) in test [12]; 21.5 µM (inactive) in test [13]; > 100 µM (inactive) in test [14]; 35.6 µM (inactive) in test [15]; 13.8 µM (inactive) in test [16].

`CC(C)C1CC=NN1C(=O)OC(C)(C)C` (configuration not stated): the GI50 in test [1], in [2], in [3], in test [4], in [5] and in test [6] was > 100 µM (inactive) each time. For the same compound, the GI50 in test [7], in [8], in test [9], in [10], in [11] and in test [12] was > 100 µM (inactive) each time. The GI50 in [13], in [14], in test [15] and in test [16] was > 100 µM (inactive) each time.

For the compound `CN(C)c1ccc(/C=N/Nc2nc3ccccc3c(=O)n2-c2ccccc2)cc1`, the GI50 in test [1] is 30.4 µM (inactive); in [2], 51.5 µM (inactive); in [3] it was > 100 µM (inactive); in test [4] it was 28.6 µM (inactive); in [5], > 100 µM (inactive); in [6] it was 56.9 µM (inactive). For the same compound, the GI50 was 63 µM (inactive) in test [17]; > 100 µM (inactive) in test [7]; > 100 µM (inactive) in test [8]; 31 µM (inactive) in [9]; 78 µM (inactive) in test [10]; 43.5 µM (inactive) in [11]. The GI50 in test [12], in test [14], in test [15] and in [16] was > 100 µM (inactive) in each case.

For the compound `C/C(CC(=O)Nc1ccccc1C)=N/NS(=O)(=O)c1ccc(C)cc1`, the GI50 in test [1], in test [2], in [4], in test [6], in test [7] and in test [8] was > 100 µM (inactive) in each case. Also, the GI50 in test [18], in test [9], in [10], in test [11], in test [12] and in test [13] was > 100 µM (inactive) each time. In addition, the GI50 in test [15] and in test [16] was > 100 µM (inactive) throughout.

For the compound `N#Cc1c(-c2ccc(Cl)c(Cl)c2)c(-c2ccc(Cl)c(Cl)c2)nn(CC(=O)O)c1=O`, the GI50 in test [2] was 41.5 µM (inactive); in [4], > 100 µM (inactive); in test [6], 34.7 µM (inactive); in test [7], > 100 µM (inactive); in [8], 33.3 µM (inactive); in test [18], > 100 µM (inactive). For the same compound, the GI50 is > 100 µM (inactive) in test [9]; 99.8 µM (inactive) in test [10]; > 100 µM (inactive) in test [12]; > 100 µM (inactive) in test [13]; 52.2 µM (inactive) in [15]; 43.7 µM (inactive) in [16].

On to `CC12CC3CC/C(=N\O)C(C1)C3(N1CCOCC1)C/C2=N/O` (configuration not stated), for which the GI50 in [1], in test [2], in test [3], in [4], in [5] and in test [6] was > 100 µM (inactive) in each case. Besides, the GI50 in test [17], in test [7], in [8], in test [18], in [9] and in test [10] was > 100 µM (inactive) in each case. Further, the GI50 in test [11], in [13], in test [14], in [15] and in test [16] was > 100 µM (inactive) each time.

Regarding `C=C1C(=O)[C@@]23CC[C@@H]4[C@@]5(C)CCC[C@@]4(OC5=O)C2(C)CC[C@]1(OC)C3` (some centres not stated), the GI50 in [1] is 1.57 µM (inactive); in test [2] it was 0.423 µM (active); in test [3], 0.23 µM (active); in [4], 1.35 µM (inactive); in [5], 4.41 µM (inactive); in [6] it was 1.59 µM (inactive). The GI50 in test [7] is 2.06 µM (inactive); in [8], 0.36 µM (active); in test [18], 1.06 µM (active); in [10] it was 1.72 µM (inactive); in test [11] it was 2.14 µM (inactive); in test [12] it was 1.38 µM (inactive). In addition, the GI50 in [13] is 9.18 µM (inactive); in [14] it was 0.255 µM (active); in test [15] it was 0.351 µM (active); in test [16], 2.32 µM (inactive).

Consider `O=C1/C(=C\c2c(-c3ccccc3)[nH]n(-c3ccccc3)c2=O)C(c2ccccc2)=NN1c1ccccc1`, for which the GI50 in test [1] is > 100 µM (inactive); in test [2] it was > 100 µM (inactive); in test [3], 20 µM (inactive); in test [4], > 100 µM (inactive); in test [5] it was > 100 µM (inactive); in [17], > 100 µM (inactive). Also, the GI50 in test [7] was > 100 µM (inactive); in test [8] it was > 100 µM (inactive); in test [18] it was > 100 µM (inactive); in test [9], 81.3 µM (inactive); in test [10], > 100 µM (inactive); in test [11], > 100 µM (inactive). The GI50 in [12], in [13], in test [14], in test [15] and in test [16] was > 100 µM (inactive) in each case.
